Values quoted from earlier work as cited in paper PMC9851200, “Multiparameter phenotypic screening for endogenous TFEB and TFE3 translocation identifies novel chemical series modulating lysosome function” (Autophagy, 2022).

Experiments:
Parameters in all cases: method as in original PKIS2 published data
[1] = target: kinases (KINOMEscan panel) (Homo sapiens, UniProt Q15303); details: kinase ERBB4; Published KINOMEscan; ref original PKIS2 published data; cited from earlier work
[2] = target: kinases (KINOMEscan panel) (Homo sapiens, UniProt Q13523); details: PRPF4B; Published KINOMEscan; ref original PKIS2 published data; cited from earlier work
kinases (KINOMEscan panel) (Homo sapiens, UniProt Q13523), sequence (Q13523 whole entry): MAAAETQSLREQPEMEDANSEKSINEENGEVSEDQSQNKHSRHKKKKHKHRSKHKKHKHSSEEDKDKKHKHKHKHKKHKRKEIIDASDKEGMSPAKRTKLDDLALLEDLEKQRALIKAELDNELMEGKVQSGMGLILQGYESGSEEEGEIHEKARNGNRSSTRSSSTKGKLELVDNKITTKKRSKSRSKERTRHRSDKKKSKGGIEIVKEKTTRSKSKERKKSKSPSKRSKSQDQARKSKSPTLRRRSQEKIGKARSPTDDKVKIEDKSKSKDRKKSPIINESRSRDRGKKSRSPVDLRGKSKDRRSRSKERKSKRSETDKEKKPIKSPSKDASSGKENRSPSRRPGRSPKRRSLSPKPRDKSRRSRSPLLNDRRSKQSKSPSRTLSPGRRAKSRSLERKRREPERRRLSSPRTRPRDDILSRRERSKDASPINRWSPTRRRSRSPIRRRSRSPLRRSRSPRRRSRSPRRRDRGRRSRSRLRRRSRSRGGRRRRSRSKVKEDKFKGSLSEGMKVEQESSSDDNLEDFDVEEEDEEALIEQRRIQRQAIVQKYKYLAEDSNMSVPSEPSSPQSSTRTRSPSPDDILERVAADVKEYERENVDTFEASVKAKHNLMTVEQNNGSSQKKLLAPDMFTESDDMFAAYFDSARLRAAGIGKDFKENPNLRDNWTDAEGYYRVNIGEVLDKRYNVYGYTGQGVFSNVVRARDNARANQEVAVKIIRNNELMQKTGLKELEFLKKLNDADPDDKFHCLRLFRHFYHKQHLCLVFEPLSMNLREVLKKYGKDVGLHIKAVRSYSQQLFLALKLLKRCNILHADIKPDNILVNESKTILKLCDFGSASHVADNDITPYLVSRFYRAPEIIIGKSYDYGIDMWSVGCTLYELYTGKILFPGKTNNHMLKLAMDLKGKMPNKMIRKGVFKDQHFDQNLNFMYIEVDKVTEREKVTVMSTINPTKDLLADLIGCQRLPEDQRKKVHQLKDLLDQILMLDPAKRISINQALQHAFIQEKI

[3] = target: kinases (KINOMEscan panel) (Homo sapiens, UniProt P51617); details: kinase IRAK1; Published KINOMEscan; ref original PKIS2 published data; cited from earlier work
[4] = target: T1, kinases (KINOMEscan panel) (Homo sapiens, UniProt Q8IYT8); details: Published KINOMEscan; ref original PKIS2 published data; cited from earlier work
T1 sequence (Q8IYT8 1-1036): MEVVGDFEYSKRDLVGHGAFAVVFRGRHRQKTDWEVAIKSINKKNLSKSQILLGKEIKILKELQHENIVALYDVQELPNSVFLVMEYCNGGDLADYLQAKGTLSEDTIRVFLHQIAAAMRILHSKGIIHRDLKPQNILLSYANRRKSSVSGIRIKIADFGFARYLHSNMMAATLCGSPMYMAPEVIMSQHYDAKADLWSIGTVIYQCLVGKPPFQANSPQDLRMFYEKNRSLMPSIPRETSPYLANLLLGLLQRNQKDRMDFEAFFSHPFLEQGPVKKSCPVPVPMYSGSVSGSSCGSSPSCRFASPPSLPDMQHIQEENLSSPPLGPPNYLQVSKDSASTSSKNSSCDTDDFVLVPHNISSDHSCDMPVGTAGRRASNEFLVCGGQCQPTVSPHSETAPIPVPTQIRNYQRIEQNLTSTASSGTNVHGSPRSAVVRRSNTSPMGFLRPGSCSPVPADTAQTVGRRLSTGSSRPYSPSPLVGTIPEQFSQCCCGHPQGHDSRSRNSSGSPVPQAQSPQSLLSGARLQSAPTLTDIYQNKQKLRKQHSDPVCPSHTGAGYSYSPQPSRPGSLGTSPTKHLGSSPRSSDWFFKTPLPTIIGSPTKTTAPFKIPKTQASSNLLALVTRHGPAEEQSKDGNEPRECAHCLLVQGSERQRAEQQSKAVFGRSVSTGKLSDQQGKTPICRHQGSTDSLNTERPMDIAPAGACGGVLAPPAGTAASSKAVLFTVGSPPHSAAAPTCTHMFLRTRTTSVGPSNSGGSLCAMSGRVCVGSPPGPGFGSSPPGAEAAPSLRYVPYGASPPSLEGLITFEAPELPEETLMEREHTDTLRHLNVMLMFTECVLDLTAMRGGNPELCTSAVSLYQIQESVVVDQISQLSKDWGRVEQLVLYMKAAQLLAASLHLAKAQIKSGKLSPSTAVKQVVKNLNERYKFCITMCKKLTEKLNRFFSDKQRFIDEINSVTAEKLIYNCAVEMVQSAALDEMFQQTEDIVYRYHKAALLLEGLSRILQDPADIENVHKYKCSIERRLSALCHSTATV

[5] = target: T2, kinases (KINOMEscan panel) (Homo sapiens, UniProt P54760); details: EPHB4; Published KINOMEscan; ref original PKIS2 published data; cited from earlier work
T2 sequence (P54760 16-987): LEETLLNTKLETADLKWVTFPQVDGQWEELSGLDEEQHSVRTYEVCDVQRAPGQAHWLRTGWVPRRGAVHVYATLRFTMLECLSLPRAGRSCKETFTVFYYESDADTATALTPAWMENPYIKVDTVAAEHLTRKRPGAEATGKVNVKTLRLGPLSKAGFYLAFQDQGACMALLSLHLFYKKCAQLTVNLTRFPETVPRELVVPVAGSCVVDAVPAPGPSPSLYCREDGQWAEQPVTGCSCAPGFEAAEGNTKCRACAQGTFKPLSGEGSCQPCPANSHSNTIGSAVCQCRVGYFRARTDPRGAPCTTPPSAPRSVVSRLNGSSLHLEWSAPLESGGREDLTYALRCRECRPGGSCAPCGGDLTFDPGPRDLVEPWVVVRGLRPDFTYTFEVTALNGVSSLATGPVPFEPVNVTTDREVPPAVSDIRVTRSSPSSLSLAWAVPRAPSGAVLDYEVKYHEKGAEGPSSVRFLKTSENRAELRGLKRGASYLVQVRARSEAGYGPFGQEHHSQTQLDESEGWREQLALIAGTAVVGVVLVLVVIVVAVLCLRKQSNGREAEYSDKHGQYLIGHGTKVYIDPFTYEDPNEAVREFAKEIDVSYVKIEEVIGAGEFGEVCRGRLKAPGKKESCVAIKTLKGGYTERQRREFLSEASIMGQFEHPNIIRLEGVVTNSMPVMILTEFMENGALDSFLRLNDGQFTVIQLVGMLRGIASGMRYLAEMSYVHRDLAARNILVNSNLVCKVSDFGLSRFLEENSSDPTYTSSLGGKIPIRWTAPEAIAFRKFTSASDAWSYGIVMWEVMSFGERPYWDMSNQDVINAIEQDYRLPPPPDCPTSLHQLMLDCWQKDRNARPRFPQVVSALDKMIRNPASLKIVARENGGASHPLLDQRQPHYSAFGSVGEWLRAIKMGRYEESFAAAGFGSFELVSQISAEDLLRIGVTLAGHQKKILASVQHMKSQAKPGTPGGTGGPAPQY

[6] = target: kinases (KINOMEscan panel) (Homo sapiens, UniProt P49760); details: kinase CLK2; Published KINOMEscan; ref original PKIS2 published data; cited from earlier work
kinases (KINOMEscan panel) (Homo sapiens, UniProt P49760), sequence (P49760 whole entry): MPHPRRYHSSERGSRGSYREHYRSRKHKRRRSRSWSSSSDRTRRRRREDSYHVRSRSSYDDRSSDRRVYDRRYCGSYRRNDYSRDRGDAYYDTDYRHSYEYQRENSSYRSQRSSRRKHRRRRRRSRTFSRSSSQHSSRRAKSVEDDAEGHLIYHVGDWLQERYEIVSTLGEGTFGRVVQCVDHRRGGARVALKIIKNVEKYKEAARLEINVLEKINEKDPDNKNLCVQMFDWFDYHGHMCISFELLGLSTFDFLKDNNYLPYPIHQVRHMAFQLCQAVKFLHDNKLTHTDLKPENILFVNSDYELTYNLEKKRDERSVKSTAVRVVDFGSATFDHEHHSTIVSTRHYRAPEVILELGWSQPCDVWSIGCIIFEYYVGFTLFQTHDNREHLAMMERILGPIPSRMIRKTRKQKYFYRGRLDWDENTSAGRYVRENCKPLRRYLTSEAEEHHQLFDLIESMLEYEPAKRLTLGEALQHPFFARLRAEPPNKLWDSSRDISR

[7] = target: kinases (KINOMEscan panel) (Homo sapiens, UniProt Q13557); details: kinase CAMK2D; Published KINOMEscan; ref original PKIS2 published data; cited from earlier work
kinases (KINOMEscan panel) (Homo sapiens, UniProt Q13557), sequence (Q13557 whole entry): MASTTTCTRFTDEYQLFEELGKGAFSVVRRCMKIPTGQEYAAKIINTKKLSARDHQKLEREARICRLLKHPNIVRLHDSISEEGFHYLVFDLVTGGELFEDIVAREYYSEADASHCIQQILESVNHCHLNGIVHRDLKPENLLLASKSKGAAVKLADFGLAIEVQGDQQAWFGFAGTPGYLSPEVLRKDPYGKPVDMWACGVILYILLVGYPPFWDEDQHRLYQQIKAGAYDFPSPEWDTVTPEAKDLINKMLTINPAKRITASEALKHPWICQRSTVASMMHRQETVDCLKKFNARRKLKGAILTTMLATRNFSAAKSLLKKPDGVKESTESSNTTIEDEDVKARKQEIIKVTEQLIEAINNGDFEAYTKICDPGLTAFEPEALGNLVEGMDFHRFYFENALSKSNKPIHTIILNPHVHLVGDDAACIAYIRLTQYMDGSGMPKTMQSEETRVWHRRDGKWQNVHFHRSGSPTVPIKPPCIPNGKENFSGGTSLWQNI

[8] = target: kinases (KINOMEscan panel) (Homo sapiens, UniProt Q07002); details: kinase CDK18; Published KINOMEscan; ref original PKIS2 published data; cited from earlier work
[9] = target: kinases (KINOMEscan panel) (Homo sapiens, UniProt Q9Y2H9); details: MAST1; Published KINOMEscan; ref original PKIS2 published data; cited from earlier work
kinases (KINOMEscan panel) (Homo sapiens, UniProt Q9Y2H9), sequence (Q9Y2H9 whole entry): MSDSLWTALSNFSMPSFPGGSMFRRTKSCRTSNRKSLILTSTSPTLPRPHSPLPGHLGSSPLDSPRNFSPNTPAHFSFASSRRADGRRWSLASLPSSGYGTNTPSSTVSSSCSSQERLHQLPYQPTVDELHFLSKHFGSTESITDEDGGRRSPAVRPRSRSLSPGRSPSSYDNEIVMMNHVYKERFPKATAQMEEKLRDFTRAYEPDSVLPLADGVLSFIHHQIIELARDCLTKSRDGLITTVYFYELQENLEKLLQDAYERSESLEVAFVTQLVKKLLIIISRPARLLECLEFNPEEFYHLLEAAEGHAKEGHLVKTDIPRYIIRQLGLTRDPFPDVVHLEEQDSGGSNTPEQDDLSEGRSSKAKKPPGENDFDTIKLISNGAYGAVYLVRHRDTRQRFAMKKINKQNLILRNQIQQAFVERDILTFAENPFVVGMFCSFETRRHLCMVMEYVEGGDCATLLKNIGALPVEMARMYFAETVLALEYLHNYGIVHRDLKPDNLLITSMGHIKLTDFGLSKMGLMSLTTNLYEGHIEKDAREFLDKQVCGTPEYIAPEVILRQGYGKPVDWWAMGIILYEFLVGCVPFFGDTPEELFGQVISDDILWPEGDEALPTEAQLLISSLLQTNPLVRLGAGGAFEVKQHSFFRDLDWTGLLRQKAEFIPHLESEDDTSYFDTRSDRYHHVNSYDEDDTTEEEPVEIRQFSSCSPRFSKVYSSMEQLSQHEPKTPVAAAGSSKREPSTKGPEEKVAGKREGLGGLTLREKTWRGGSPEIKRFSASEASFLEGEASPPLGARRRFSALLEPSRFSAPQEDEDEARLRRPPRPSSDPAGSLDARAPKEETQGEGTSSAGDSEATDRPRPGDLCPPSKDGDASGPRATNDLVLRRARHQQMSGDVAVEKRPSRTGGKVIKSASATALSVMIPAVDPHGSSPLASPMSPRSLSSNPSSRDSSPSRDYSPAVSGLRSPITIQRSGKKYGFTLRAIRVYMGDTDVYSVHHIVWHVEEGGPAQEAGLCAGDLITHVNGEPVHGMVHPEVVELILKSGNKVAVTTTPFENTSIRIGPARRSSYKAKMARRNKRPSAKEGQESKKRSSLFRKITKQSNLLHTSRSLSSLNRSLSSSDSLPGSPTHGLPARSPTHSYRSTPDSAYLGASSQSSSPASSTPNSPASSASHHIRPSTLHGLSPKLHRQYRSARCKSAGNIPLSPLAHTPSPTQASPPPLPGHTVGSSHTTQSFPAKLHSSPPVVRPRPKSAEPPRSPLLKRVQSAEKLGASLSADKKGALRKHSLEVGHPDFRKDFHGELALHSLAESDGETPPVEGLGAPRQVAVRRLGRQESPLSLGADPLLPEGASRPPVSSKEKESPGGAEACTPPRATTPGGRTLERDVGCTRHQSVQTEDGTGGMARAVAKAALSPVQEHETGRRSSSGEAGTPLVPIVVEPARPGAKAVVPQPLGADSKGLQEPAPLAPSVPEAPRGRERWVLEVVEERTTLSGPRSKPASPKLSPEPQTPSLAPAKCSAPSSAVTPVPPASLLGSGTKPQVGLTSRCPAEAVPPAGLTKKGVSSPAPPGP

kinases (KINOMEscan panel) (Homo sapiens, UniProt Q15303), sequence (Q15303 26-1308): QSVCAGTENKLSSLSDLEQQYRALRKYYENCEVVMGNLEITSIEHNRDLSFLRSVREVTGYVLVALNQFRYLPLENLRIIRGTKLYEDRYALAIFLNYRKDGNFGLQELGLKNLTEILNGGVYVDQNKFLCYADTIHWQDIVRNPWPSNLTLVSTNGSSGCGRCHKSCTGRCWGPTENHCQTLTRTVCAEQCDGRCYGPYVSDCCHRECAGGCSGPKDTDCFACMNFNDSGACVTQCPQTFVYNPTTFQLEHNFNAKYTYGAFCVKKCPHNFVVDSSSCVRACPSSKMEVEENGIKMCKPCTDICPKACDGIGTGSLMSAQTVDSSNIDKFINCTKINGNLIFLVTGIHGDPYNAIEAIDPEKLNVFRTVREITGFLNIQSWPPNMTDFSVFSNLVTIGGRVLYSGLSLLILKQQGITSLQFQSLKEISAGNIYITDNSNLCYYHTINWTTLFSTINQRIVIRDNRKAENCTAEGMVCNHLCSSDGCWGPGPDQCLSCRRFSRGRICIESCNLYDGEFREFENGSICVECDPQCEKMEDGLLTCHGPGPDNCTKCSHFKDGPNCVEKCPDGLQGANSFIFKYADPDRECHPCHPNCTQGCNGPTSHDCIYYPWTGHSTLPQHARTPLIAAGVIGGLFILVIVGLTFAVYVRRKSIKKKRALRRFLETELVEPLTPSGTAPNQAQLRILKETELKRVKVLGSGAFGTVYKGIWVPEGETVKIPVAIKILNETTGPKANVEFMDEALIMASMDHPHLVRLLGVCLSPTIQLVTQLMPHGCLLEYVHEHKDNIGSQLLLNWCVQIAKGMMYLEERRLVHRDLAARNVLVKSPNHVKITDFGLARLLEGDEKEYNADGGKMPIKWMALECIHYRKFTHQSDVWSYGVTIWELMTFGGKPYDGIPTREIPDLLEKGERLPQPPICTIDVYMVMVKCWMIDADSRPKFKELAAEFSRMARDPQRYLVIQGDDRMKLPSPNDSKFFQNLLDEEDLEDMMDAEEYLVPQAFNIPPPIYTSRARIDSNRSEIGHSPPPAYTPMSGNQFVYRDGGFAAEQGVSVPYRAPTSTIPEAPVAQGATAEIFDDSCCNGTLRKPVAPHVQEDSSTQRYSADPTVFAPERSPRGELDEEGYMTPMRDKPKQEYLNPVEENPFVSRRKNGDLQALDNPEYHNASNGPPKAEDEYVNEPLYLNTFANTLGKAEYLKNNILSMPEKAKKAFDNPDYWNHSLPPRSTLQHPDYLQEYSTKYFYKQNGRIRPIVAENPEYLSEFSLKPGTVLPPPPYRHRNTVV

For `Cc1cccc(-c2nc(Nc3ccncc3)c3ccccc3n2)n1` [NK215], the “KINOMEscan ERBB4” value [1] is given as 0, the “KINOMEscan PRPF4B” value [2] is given as 17 and the “KINOMEscan IRAK1” value [3] is given as 0. For the same compound, the “KINOMEscan ULK2” value [4] was 0, the “KINOMEscan EPHB4” value [5] was 26 and the “KINOMEscan CLK2” value [6] was 8. The “KINOMEscan CAMK2D” value [7] was 7, the “KINOMEscan CDK18” value [8] was 0 and the “KINOMEscan MAST1” value [9] was 50.
